Assay results from patent US20160039825A1 (BIOGEN MA INC., priority 2013, published 2016).

These molecules were tested against T1, Human ATX protein (Homo sapiens, UniProt Q13822) (assay: Autotaxin (ATX) assay, FRET with FS-3 substrate). Conditions: greater than 10 μM.
T1 construct: made in house
Format: biochemical
In short: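 Hydrolysis of the FRET substrate FS-3 (2 μM final) unquenches fluorescein, read at excitation 485 nm and emission 538 nm after 2 h at room temperature, protected from light. Purified human ATX (1.0 μg/mL) and compound were first incubated for 30 min in pH 7.4 Tris/salt buffer containing 1 mg/mL fatty acid-free BSA.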

SMILES	IC50 [µM]
CCOC(=O)C1CN(C(=O)OCc2cc(C(F)(F)F)cc(C(F)(F)F)c2)Cc2ccnn21 (stereo not shown) [Example 405]	> 10

Same assay, conditions: upper bound bins (no greater than 100, 250 or 500 nM); FS-3 2 μM, ATX 1.0 μg/mL

SMILES	IC50 [µM]
O=C(O)C1CC2CCCC(C1)N2C(=O)c1cc2n(n1)CCN(C(=O)OCc1cccc(Cl)c1)C2 (stereo not shown) [Example 42, 9-(5-(((3-chlorobenzyl)oxy)carbonyl)-4,5,6,7-tetrahydropyrazolo[1,5-a]pyrazine-2-carbonyl)-9-azabicyclo[3.3.1]nonane-3-carboxylic acid]	≤ 0.5
Cc1noc(-c2cc3n(n2)CCCN(C(=O)OCc2cc(C(F)(F)F)cc(C(F)(F)F)c2)C3)n1 [Example 118, 3,5-Bis(trifluoromethyl)benzyl 2-(3-methyl-1,2,4-oxadiazol-5-yl)-7,8-dihydro-4H-pyrazolo[1,5-a][1,4]diazepine-5(6H)-carboxylate]	≤ 0.1
O=C(OCc1cc(C(F)(F)F)cc(C(F)(F)F)c1)N1CCn2nc(C(=O)N3C4CCCC3CCC4)cc2C1 [Example 487]	≤ 0.1
CN1CCN(C(=O)c2cc3n(n2)CCCN(C(=O)OCc2cc(Cl)cc(C(F)(F)F)c2)C3)CC1 [Example 216]	≤ 0.1
O=C(OCc1cc(C(F)(F)F)cc(C(F)(F)F)c1)N1CCn2nc(C3=CCCNC3)cc2C1 [Example 444]	≤ 0.1
CC(C)(C)OC(=O)N1CCC(c2cc3n(n2)CCCN(C(=O)OCc2cc(C(F)(F)F)cc(C(F)(F)F)c2)C3)C1 (stereo not shown) [Example 383]	≤ 0.1
O=C(OCc1cc(C(F)(F)F)cc(C(F)(F)F)c1)N1CCCn2nc(CNC3CC3)cc2C1 [Example 513]	≤ 0.25
O=C(OCc1cc(Cl)cc(C(F)(F)F)c1)N1CCCn2nc(C(=O)N3CCC4CNCC43)cc2C1 (stereo not shown) [Example 165]	≤ 0.1
O=C(OCc1cc(Cl)cc(C(F)(F)F)c1)N1CCCn2nc(C3CN4CCC[C@@H]4CO3)cc2C1 (single isomer, unassigned) [Example 252A]	≤ 0.1
CC(c1cc2n(n1)CCN(C(=O)OCc1cc(C(F)(F)F)cc(C(F)(F)F)c1)C2)N1C2CCC1CN(C(=O)OC(C)(C)C)C2 (stereo not shown) [Example 450]	≤ 0.1
O=C(O)C1CC2CCCC(C1)N2C(=O)c1cc2n(n1)CCCN(C(=O)OCc1ccc(C(F)(F)F)cc1)C2 (stereo not shown) [Example 60]	≤ 0.1
CC(C)(C)OC(=O)N1CC2CCC(C1)N2C(=O)c1cc2n(n1)CCN(C(=O)OCc1cc(C(F)(F)F)cc(C(F)(F)F)c1)C2 [Example 474]	≤ 0.1
CCC1CNCCN1C(=O)c1cc2n(n1)CCCN(C(=O)OCc1cc(Cl)cc(C(F)(F)F)c1)C2 (stereo not shown) [Example 205]	≤ 0.1
O=C(OCc1cc(C(F)(F)F)cc(C(F)(F)F)c1)N1CCCn2nc(Br)cc2C1 [Example 280]	≤ 0.1
O=C(OCc1cc(C(F)(F)F)cc(C(F)(F)F)c1)N1CCCn2nc(NC3CCNCC3)cc2C1 [Example 313, 3,5-bis(trifluoromethyl)benzyl 2-(piperidin-4-ylamino)-7,8-dihydro-4H-pyrazolo[1,5-a][1,4]diazepine-5(6H)-carboxylate]	≤ 0.25
CN1CCN(C(=O)c2cc3n(c2)CCCN(C(=O)OCc2cc(Cl)cc(C(F)(F)F)c2)C3)CC1 [Example 277, 3-chloro-5-(trifluoromethyl)benzyl 8-(4-methylpiperazine-1-carbonyl)-4,5-dihydro-1H-pyrrolo[1,2-a][1,4]diazepine-2(3H)-carboxylate]	≤ 0.1
O=C(O)c1nn2c(c1F)CN(C(=O)OCc1cc(Cl)cc(C(F)(F)F)c1)CCC2 [Example 399, 5-(((3-chloro-5-(trifluoromethyl)benzyl)oxy)carbonyl)-3-fluoro-5,6,7,8-tetrahydro-4H-pyrazolo[1,5-a][1,4]diazepine-2-carboxylic acid]	≤ 0.1
CN1CC2CCC1CN2C(=O)c1cc2n(n1)CCCN(C(=O)OCc1cc(Cl)cc(C(F)(F)F)c1)C2 (stereo not shown) [Example 159, 3-chloro-5-(trifluoromethyl)benzyl 2-(5-methyl-2,5-diazabicyclo[2.2.2]octane-2-carbonyl)-7,8-dihydro-4H-pyrazolo[1,5-a][1,4]diazepine-5(6H)-carboxylate]	≤ 0.1
O=C(NC1CC1)c1cc2n(n1)CCCN(C(=O)OCc1cc(C(F)(F)F)cc(C(F)(F)F)c1)C2 [Example 503]	≤ 0.1
O=C(OCc1cc(C(F)(F)F)cc(C(F)(F)F)c1)N1CCCn2nc(N3CCNCC3)cc2C1 [Example 339]	≤ 0.25
CC(C)(C)OC(=O)N1CCC(c2cc3n(n2)CCCN(C(=O)OCc2cc(C(F)(F)F)cc(C(F)(F)F)c2)C3)CC1 [Example 374, 3,5-bis(trifluoromethyl)benzyl 2-(1-(tert-butoxycarbonyl)piperidin-4-yl)-7,8-dihydro-4H-pyrazolo[1,5-a][1,4]diazepine-5(6H)-carboxylate]	≤ 0.1

SMILES	IC50 [µM]
CC1COCCN1CC(=O)c1cc2n(n1)CCCN(C(=O)OCc1cc(Cl)cc(C(F)(F)F)c1)C2 (stereo not shown) [Example 257, 3-chloro-5-(trifluoromethyl)benzyl 2-(2-(3-methylmorpholino)acetyl)-7,8-dihydro-4H-pyrazolo[1,5-a][1,4]diazepine-5(6H)-carboxylate]	≤ 0.1
O=C(OCc1cc(C(F)(F)F)cc(C(F)(F)F)c1)N1CCCn2nc(N3CCC4NCCC43)cc2C1 (stereo not shown) [Example 359]	≤ 0.1
CN1CCN(C(=O)c2nn3c(c2F)CN(C(=O)OCc2cc(Cl)cc(C(F)(F)F)c2)CCC3)CC1 [Example 515]	≤ 0.1
N#Cc1cc2n(n1)CCCN(C(=O)OCc1cc(Cl)cc(Cl)c1)C2 [Example 122, 3,5-Dichlorobenzyl 2-cyano-7,8-dihydro-4H-pyrazolo[1,5-a][1,4]diazepine-5(6H)-carboxylate]	≤ 0.25
O=C(OCc1cc(C(F)(F)F)cc(C(F)(F)F)c1)N1CCn2nc(-c3cccnc3)cc2C1 [Example 496, 3,5-bis(trifluoromethyl)benzyl 2-(pyridin-3-yl)-6,7-dihydropyrazolo[1,5-a]pyrazine-5(4H)-carboxylate]	≤ 0.1
O=C(O)Cc1cc2n(n1)CCCN(C(=O)OCc1cc(C(F)(F)F)cc(C(F)(F)F)c1)C2 [Example 386, 2-(5-(((3,5-bis(Trifluoromethyl)benzyl)oxy)carbonyl)-5,6,7,8-tetrahydro-4H-pyrazolo[1,5-a][1,4]diazepin-2-yl)acetic acid]	≤ 0.1
CC1CN(c2cc3n(n2)CCCN(C(=O)OCc2cc(C(F)(F)F)cc(C(F)(F)F)c2)C3)CC(C)N1 (stereo not shown) [Example 345]	≤ 0.1
CN1CCN(Cc2cc3n(n2)CCCN(C(=O)OCc2cc(C(F)(F)F)cc(C(F)(F)F)c2)C3)CC1 [Example 290, 3,5-bis(trifluoromethyl)benzyl 2-((4-methylpiperazin-1-yl)methyl)-7,8-dihydro-4H-pyrazolo[1,5-a][1,4]diazepine-5(6H)-carboxylate]	≤ 0.5
CC(O)c1cc2n(n1)CCN(C(=O)OCc1cc(C(F)(F)F)cc(C(F)(F)F)c1)C2 (stereo not shown) [Example 396, 3,5-bis(Trifluoromethyl)benzyl 2-(1-hydroxyethyl)-6,7-dihydropyrazolo[1,5-a]pyrazine-5(4H)-carboxylate]	≤ 0.1
CN1CC2CN(c3cc4n(n3)CCCN(C(=O)OCc3cc(C(F)(F)F)cc(C(F)(F)F)c3)C4)CC2C1 (stereo not shown) [Example 349]	≤ 0.1
O=C(OCc1cc(C(F)(F)F)cc(C(F)(F)F)c1)N1CCn2nc(C3CCNCC3)cc2C1 [Example 443]	≤ 0.1
O=C(OCc1cc(C(F)(F)F)cc(C(F)(F)F)c1)N1CCCn2nc(CN[C@H]3CC[C@@H](C(=O)O)CC3)cc2C1 [Example 288]	≤ 0.5
O=C(O)c1cc2n(n1)CCCN(C(=O)CNc1cc(C(F)(F)F)cc(C(F)(F)F)c1)C2 [Example 116, 5-(2-((3,5-Bis(trifluoromethyl)phenyl)amino)acetyl)-5,6,7,8-tetrahydro-4H-pyrazolo[1,5-a][1,4]diazepine-2-carboxylic acid]	≤ 0.5
CCOC(=O)c1cn2c(n1)CN(C(=O)OCc1cc(C(F)(F)F)cc(C(F)(F)F)c1)CC2 [Example 3, 7-(3,5-Bis(trifluoromethyl)benzyl) 2-ethyl 5,6-dihydroimidazo[1,2-a]pyrazine-2,7(8H)-dicarboxylate]	≤ 0.1
O=C(O)C1CC2CCCC(C1)N2C(=O)c1cc2n(n1)CCCN(C(=O)OCc1cc(F)cc(F)c1)C2 (stereo not shown) [Example 62, 9-(5-((3,5-Trifluorobenzyloxy)carbonyl)-5,6,7,8-tetrahydro-4H-pyrazolo[1,5-a][1,4]diazepine-2-carbonyl)-9-aza-bicyclo[3.3.1]nonane-3-carboxylic acid]	≤ 0.1
CC(C(=O)O)c1cc2n(n1)CCCN(C(=O)OCc1cc(C(F)(F)F)cc(C(F)(F)F)c1)C2 (stereo not shown) [Example 387, 2-(5-(((3,5-bis(Trifluoromethyl)benzyl)oxy)carbonyl)-5,6,7,8-tetrahydro-4H-pyrazolo[1,5-a][1,4]diazepin-2-yl)propanoic acid]	≤ 0.1
CC(c1cc2n(n1)CCCN(C(=O)OCc1cc(Cl)cc(Cl)c1)C2)N1CCCC1 (stereo not shown) [Example 454]	≤ 0.5
O=C(OCc1cc(C(F)(F)F)cc(C(F)(F)F)c1)N1CCCn2nc(CN3C4CCCC3CC4)cc2C1 [Example 292]	≤ 0.25
CCOC(=O)c1cc2n(c1)CCCN(C(=O)OCc1cc(C(F)(F)F)cc(C(F)(F)F)c1)C2 [Example 106, 2-(3,5-Bis(trifluoromethyl)benzyl) 8-ethyl 4,5-dihydro-1H-pyrrolo[1,2-a][1,4]diazepine-2,8(3H)-dicarboxylate]	≤ 0.1
O=C(O)c1cc2n(n1)CCCN(C(=O)OCc1cc(Cl)cc(C(F)(F)F)c1)C2 [Example 65, 5-(((3-Chloro-5-(trifluoromethyl)benzyl)oxy)carbonyl)-5,6,7,8-tetrahydro-4H-pyrazolo[1,5-a][1,4]diazepine-2-carboxylic acid]	≤ 0.1
CCCN1CCN(c2cc3n(n2)CCCN(C(=O)OCc2cc(C(F)(F)F)cc(C(F)(F)F)c2)C3)CC1 [Example 357]	≤ 0.1
